Reference: patent US12116388B2, “Amylin receptor agonists” (Novo Nordisk A/S, priority 2022, dated 2024)
Starred links: 1 amine or outer side, 2 acyl side, 3 side chain; linkers in the order of their positions; H or OH if unused. Residues, ends and D or L forms follow the SMILES beside them. *: point of attachment. C20 diacid = O=C(O)CCCCCCCCCCCCCCCCCCC(=O)*; C18 diacid = O=C(O)CCCCCCCCCCCCCCCCC(=O)*; γGlu = O=C(O)[C@H](CCC(=O)[*:2])N[*:1]

Experiments:
[1] = biological target: T1, human amylin receptor (hAMYR3) (Homo sapiens, UniProt O60896+P30988); test: Human amylin receptor (hAMYR3) in vitro potency assay, CRE-luciferase reporter in BHK cells; assay type: cell-based; details: BHK hAMYR3/CRE-Luc cells, 3 hours incubation, assay buffer with 1% ovalbumin
T1 construct: host or cells: BHK (Baby Hamster Kidney), Hollex-1 cell line further transfected with RAMP3
T1 sequence (O60896 24-148, one chain of several): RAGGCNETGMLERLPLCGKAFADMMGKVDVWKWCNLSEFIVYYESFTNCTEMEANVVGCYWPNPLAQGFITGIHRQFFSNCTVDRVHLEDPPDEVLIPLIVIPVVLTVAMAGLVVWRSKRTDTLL
Description: (§1) Activation of hAMYR3 leads to increased cellular concentrations of cAMP. Consequently, transcription is activated by promotors containing multiple copies of the CAMP response element (CRE). It is thus possible to measure hAMYR3 activity using a CRE-luciferase reporter gene introduced into Baby Hamster Kidney (BHK) cells co-expressing the hAMYR3.
A BHK cell line was stably transfected with the human calcitonin receptor (a) and a CRE-responsive luciferase (CRE-Luc) reporter gene according to methods known to the person skilled in the art (Hollex-1 cell line, obtained from Zymogenetics described in U.S. Pat. No. 5,622,839). The cell line was further transfected with human receptor modifying protein 3 (RAMP3) using standard methods. This turns the human calcitonin receptor into a human amylin-3(a) receptor.
(§2) Cells stocks were prepared by culturing of the stably transfected BHK hAMYR3/CRE-Luc cell line in growth medium consisting of DMEM (Gibco, 31966-021) supplemented with 10% FBS (Gibco, 16140-071), 1% Pen/Strep (Gibco, 15140-122), 0.5 mg/mL Geneticin (Gibco, 10131-027), 0.4 mg/mL Hygromycin (Invitrogen, 10687010) and 250 nM Methotrexate (Sigma, A6770). Cells at approximately 80-90% confluence were washed once with PBS (Gibco 14190-094) and loosened from the cell flasks with Versene (Gibco, 15040-033) or TrypLE™ (Gibco, 12605-010). After centrifugation, the cell pellet was dissolved and diluted to approximately 2.5×10E6 cells/mL in Recovery™ Cell Culture Freezing Medium (Gibco, 12648-010). Cells were aliquoted and stored at −180° C. until use.
(§3) The assay buffer consisted of DMEM without phenol red (Gibco, 11880-028) supplemented with 1× GlutaMAX (Gibco, 35050-038), 10 mM HEPES (Gibco, 15630-056) and 1% (w/v) ovalbumin (Sigma, A5503).
(§4) To perform the assay, BHK hAMYR3/CRE-Luc cells were thawed, washed once in PBS and seeded in 40 μL growth medium in a white 384-well culture plate (PerkinElmer, 6007688) at a cell density of 4.000 cells/well on the day before the experiment. The plate was incubated over night at 37° C. in 5% CO2. On the day of the assay, cells were washed once in assay buffer. Serial dilutions (7-fold dilutions, 7 concentrations Pr. compound and one well containing only assay buffer) of comparator compounds and amylin analogues were performed in assay buffer often starting from approximately 10 nM in 96-well plates and 30 μL of each concentration added to the 384-well assay plate with cells. The assay plate was incubated for 3 hours at 37° C. in 5% CO2 after which 30 μL SteadyLite Plus (PerkinElmer, 6066759) was added to each well. The assay plate was sealed, incubated at room temperature with gentle shaking for 5 minutes followed by 30 minutes incubation without shaking while protected from light. Luminescence was detected on a luminescence plate reader e.g. a Synergy 2 (BioTek).

[2] = biological target: T2, human calcitonin receptor (hCTR) (Homo sapiens, UniProt P30988); test: Human calcitonin receptor (hCTR) in vitro potency assay, CRE-luciferase reporter in BHK cells; assay type: cell-based; details: BHK hCTR/CRE-Luc cells, 3 hours incubation, assay buffer with 1% ovalbumin; read-out: hCalcR potency, EC50
T2 construct: host or cells: BHK (Baby Hamster Kidney), Hollex-1 cell line
T2 sequence (P30988 25-474): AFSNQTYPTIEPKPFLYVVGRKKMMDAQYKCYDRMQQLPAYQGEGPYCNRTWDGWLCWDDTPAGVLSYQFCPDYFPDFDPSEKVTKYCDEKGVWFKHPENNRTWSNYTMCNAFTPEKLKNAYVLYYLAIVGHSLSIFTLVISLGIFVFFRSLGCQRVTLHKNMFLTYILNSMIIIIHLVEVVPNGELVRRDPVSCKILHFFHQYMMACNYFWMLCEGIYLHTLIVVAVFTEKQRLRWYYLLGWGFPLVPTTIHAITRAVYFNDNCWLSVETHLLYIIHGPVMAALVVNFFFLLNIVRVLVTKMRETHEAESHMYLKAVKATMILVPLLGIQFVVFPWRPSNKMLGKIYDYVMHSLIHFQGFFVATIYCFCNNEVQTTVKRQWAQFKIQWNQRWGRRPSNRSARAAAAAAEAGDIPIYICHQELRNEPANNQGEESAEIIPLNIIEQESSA
Description: as §1, with “hCTR” for “hAMYR3”, “CAMP.” for “cAMP.”, “hCTR.” for “hAMYR3.”
A BHK cell line was stably transfected with the human calcitonin receptor (a) and a CRE-responsive luciferase (CRE-Luc) reporter gene according to methods known to the person skilled in the art (Hollex-1 cell line, obtained from Zymogenetics described in U.S. Pat. No. 5,622,839).
as §2, with “hCTR/CRE-Luc” for “hAMYR3/CRE-Luc”, “10131-027)” for “10131-027), 0.4 mg/mL Hygromycin (Invitrogen, 10687010)”
as §3
as §4, with “hCTR/CRE-Luc” for “hAMYR3/CRE-Luc”

Structure (SMILES)	EC50 [1] [pM]	EC50 [2] [pM]
CC[C@H](C)[C@H](NC(=O)[C@H](C)NC(=O)CNC(=O)[C@H](Cc1ccccc1)NC(=O)[C@@H]1CCCN1C(=O)[C@H](CC(=O)O)NC(=O)[C@H](CO)NC(=O)[C@H](CO)NC(=O)[C@H](Cc1c[nH]cn1)NC(=O)[C@H](Cc1c[nH]cn1)NC(=O)[C@H](CC(C)C)NC(=O)[C@H](Cc1ccccc1)NC(=O)[C@H](CCC(=O)O)NC(=O)[C@H](C)NC(=O)[C@H](CC(C)C)NC(=O)[C@H](CCCNC(=N)N)NC(=O)[C@H](CCC(N)=O)NC(=O)[C@@H](NC(=O)[C@H](CCC(N)=O)NC(=O)[C@H](C)NC(=O)[C@@H](NC(=O)[C@H](CO)NC(=O)[C@H](CC(C)C)NC(=O)[C@H](Cc1c[nH]cn1)NC(=O)CNC(=O)[C@H](C)NC(=O)CC[C@H](NC(=O)CCCCCCCCCCCCCCCCCCC(=O)O)C(=O)O)[C@@H](C)O)[C@@H](C)O)C(=O)N1CCC[C@H]1C(=O)N[C@@H](CO)C(=O)N[C@@H](CO)C(=O)N[C@H](C(=O)N[C@@H](CC(=O)O)C(=O)N[C@H](C(=O)NCC(=O)N1CCC[C@H]1C(=O)N[C@@H](CC(=O)O)C(=O)N[C@H](C(=O)N1CCC[C@H]1C(N)=O)[C@@H](C)O)C(C)C)[C@@H](C)O [Compound 7, N^1-[(4S)-4-carboxy-4-(19-carboxynonadecanoylamino)butanoyl]-[Ala1,Gly2,His3,Leu4,Ser5,Ala7,Gln8,Glu14,His17,Asp21,Pro22,Pro27,Asp31,Pro34,Asp35,Pro37]-human amylin] ({C20 diacid-γGlu}-AGHLSTAQTQRLAEFLHHSSDPFGAIPSSTDVGPDTP-NH2)	1.68	1.81
CC[C@H](C)[C@H](NC(=O)[C@H](C)NC(=O)CNC(=O)[C@H](Cc1ccccc1)NC(=O)[C@@H]1CCCN1C(=O)[C@H](CC(=O)O)NC(=O)[C@H](CO)NC(=O)[C@H](CO)NC(=O)[C@H](Cc1c[nH]cn1)NC(=O)[C@H](Cc1c[nH]cn1)NC(=O)[C@H](CC(C)C)NC(=O)[C@H](Cc1ccccc1)NC(=O)[C@H](CCC(=O)O)NC(=O)[C@H](C)NC(=O)[C@H](CC(C)C)NC(=O)[C@H](CCCNC(=N)N)NC(=O)[C@H](CCC(N)=O)NC(=O)[C@@H](NC(=O)[C@H](CCC(N)=O)NC(=O)[C@H](C)NC(=O)[C@@H](NC(=O)[C@H](CO)NC(=O)[C@H](CC(C)C)NC(=O)[C@H](Cc1c[nH]cn1)NC(=O)[C@H](CO)NC(=O)[C@H](C)NC(=O)CC[C@H](NC(=O)CC[C@H](NC(=O)CCCCCCCCCCCCCCCCC(=O)O)C(=O)O)C(=O)O)[C@@H](C)O)[C@@H](C)O)C(=O)N1CCC[C@H]1C(=O)N[C@@H](CO)C(=O)N[C@@H](CO)C(=O)N[C@H](C(=O)N[C@@H](CC(=O)O)C(=O)N[C@H](C(=O)NCC(=O)N1CCC[C@H]1C(=O)N[C@@H](CC(=O)O)C(=O)N[C@H](C(=O)N1CCC[C@H]1C(N)=O)[C@@H](C)O)C(C)C)[C@@H](C)O [Compound 9, N^1-[(4S)-4-carboxy-4-[[(4S)-4-carboxy-4-(17-carboxyheptadecanoylamino)butanoyl]amino]butanoyl]-[Ala1,Ser2,His3,Leu4,Ser5,Ala7,Gln8,Glu14,His17,Asp21,Pro22,Pro27,Asp31,Pro34,Asp35,Pro37]-human amylin] ({C18 diacid-γGlu-γGlu}-ASHLSTAQTQRLAEFLHHSSDPFGAIPSSTDVGPDTP-NH2)	2.18	1.68
CC[C@H](C)[C@H](NC(=O)[C@H](C)NC(=O)CNC(=O)[C@H](Cc1ccccc1)NC(=O)[C@@H]1CCCN1C(=O)[C@H](CC(=O)O)NC(=O)[C@H](CO)NC(=O)[C@H](CO)NC(=O)[C@H](Cc1c[nH]cn1)NC(=O)[C@H](Cc1c[nH]cn1)NC(=O)[C@H](CC(C)C)NC(=O)[C@H](Cc1ccccc1)NC(=O)[C@H](CCC(=O)O)NC(=O)[C@H](C)NC(=O)[C@H](CC(C)C)NC(=O)[C@H](CCCNC(=N)N)NC(=O)[C@H](CCC(N)=O)NC(=O)[C@@H](NC(=O)[C@H](CCC(N)=O)NC(=O)[C@H](C)NC(=O)[C@@H](NC(=O)[C@H](CO)NC(=O)[C@H](CC(C)C)NC(=O)[C@H](CCC(=O)O)NC(=O)CNC(=O)[C@H](C)NC(=O)CC[C@H](NC(=O)CCCCCCCCCCCCCCCCC(=O)O)C(=O)O)[C@@H](C)O)[C@@H](C)O)C(=O)N1CCC[C@H]1C(=O)N[C@@H](CO)C(=O)N[C@@H](CO)C(=O)N[C@H](C(=O)N[C@@H](CC(=O)O)C(=O)N[C@H](C(=O)NCC(=O)N1CCC[C@H]1C(=O)N[C@@H](CC(=O)O)C(=O)N[C@H](C(=O)N1CCC[C@H]1C(N)=O)[C@@H](C)O)C(C)C)[C@@H](C)O [Compound 11, N^1-[(4S)-4-carboxy-4-(17-carboxyheptadecanoylamino)butanoyl]-[Ala1,Gly2,Glu3,Leu4,Ser5,Ala7,Gln8,Glu14,His17,Asp21,Pro22,Pro27,Asp31,Pro34,Asp35,Pro37]-human amylin] ({C18 diacid-γGlu}-AGELSTAQTQRLAEFLHHSSDPFGAIPSSTDVGPDTP-NH2)	2.43	1.58
